Data on five compounds can be found in ChEMBL document CHEMBL1201862, “PubChem BioAssay data set” (2004).

What all share (assay): inhibition of tumour cell growth, NCI panel, 48 h
Assay [1] concerns KM12.
Assay [2] deals with SK-OV-3.
For assay [3], the system named is HCC 2998.
The subject of assay [4] is NCI-H522.
Assay [5] deals with SF-539.
Assay [6] relates to OVCAR-3.
Assay [7] relates to NCI-H23.
For assay [8], the system named is DU-145.
For assay [9], the system named is UACC-257.
Assay [10] deals with IGROV-1.
Assay [11] deals with SK-MEL-28.
For assay [12], the system named is UACC-62.
Assay [13] deals with SNB-19.
Assay [14] concerns K562.
Assay [15] relates to Malme-3M.
Assay [16] relates to COLO 205.
For assay [17], the system named is HOP-92.
Assay [18] concerns U-251.
Assay [19] has as its system OVCAR-5.
The test system of assay [20] is RPMI-8226.

The structures appear in SMILES notation.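 Step 1: Grow cells in 96-well plates. Step 2: Expose to compound for 48 hours at 5 concentrations. Step 3: Interpolate endpoints linearly; if unreached, use highest concentration. Abbreviation: GI50, concentration required for 50% inhibition of growth.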 Active and inactive are the calls of the source. Rule as the data show it: active = GI50 up to about 1.1 µM and inactive = higher. Bounds are passed on as bounds.

With `COc1ccc(C(O)CC(O)(C(F)(F)F)C(F)(F)F)cc1` (stereo not given), the GI50 in assay [1] was 51.3 µM (inactive); in [2] it was 54.1 µM (inactive); in assay [3], 38 µM (inactive); in [4], 32.1 µM (inactive); in [5], 21.7 µM (inactive); in [6], 22.2 µM (inactive). The GI50 in [7] is 19.5 µM (inactive); in [8], 47 µM (inactive); in [9], 19.1 µM (inactive); in [10], 26.8 µM (inactive); in [11], 62.7 µM (inactive); in assay [12] it was 22.8 µM (inactive). In addition, the GI50 is 24.9 µM (inactive) in assay [13]; 25.6 µM (inactive) in assay [14]; 16.8 µM (inactive) in assay [15]; 19.1 µM (inactive) in [16]; 15.8 µM (inactive) in assay [17]; 37.4 µM (inactive) in assay [18]. The GI50 in [19] was 27.5 µM (inactive); in assay [20], 14.4 µM (inactive).
In the case of `CC(CN(C)C)C(C#N)(c1ccccc1)c1ccccc1` (stereo not given), the GI50 in assay [1] is > 100 µM (inactive); in assay [2], > 100 µM (inactive); in assay [3] it was 43.8 µM (inactive); in assay [4], > 100 µM (inactive); in assay [5], > 100 µM (inactive); in assay [6], > 100 µM (inactive). The GI50 in [7] is > 100 µM (inactive); in assay [8], > 100 µM (inactive); in assay [9], > 100 µM (inactive); in assay [10] it was > 100 µM (inactive); in [11], 89.1 µM (inactive); in assay [12] it was > 100 µM (inactive). Moreover, the GI50 is > 100 µM (inactive) in assay [13]; 65.2 µM (inactive) in assay [14]; > 100 µM (inactive) in assay [15]; 82.6 µM (inactive) in assay [16]; 43.4 µM (inactive) in assay [17]; > 100 µM (inactive) in [18]. In addition, the values for the GI50 in assay [19] and in assay [20] were > 100 µM (inactive) and 78.2 µM (inactive), respectively.
On to `CC1=C(Cl)C[C@@H](/C(C)=C\Cl)O[C@@]1(O)C(Br)Br`, for which the GI50 in assay [1] is 54.1 µM (inactive); in assay [2], > 100 µM (inactive); in [3] it was 33.3 µM (inactive); in assay [4] it was 18.9 µM (inactive); in assay [5] it was 33.8 µM (inactive); in [6] it was 17.5 µM (inactive). Also, the GI50 in [7] is 41.9 µM (inactive); in [8], 19.9 µM (inactive); in [9], 35.3 µM (inactive); in [10] it was 34.3 µM (inactive); in [11], 59.8 µM (inactive); in assay [12] it was 45.2 µM (inactive). The GI50 in [13] was > 100 µM (inactive); in [14], 17.3 µM (inactive); in assay [15] it was 24.5 µM (inactive); in [16], 29.5 µM (inactive); in assay [17] it was 25.2 µM (inactive); in assay [18] it was 32.8 µM (inactive). Besides, the GI50 in assay [19] was 19.2 µM (inactive); in assay [20] it was 18.2 µM (inactive).
Turning to `O=C1CC(n2cccc2)c2c(Br)sc(Br)c21` (stereo not given), the GI50 is 7.23 µM (inactive) in [1]; 19.4 µM (inactive) in [2]; 15.4 µM (inactive) in assay [3]; 1.49 µM (inactive) in assay [4]; 17.6 µM (inactive) in [5]; 15.8 µM (inactive) in assay [6]. In addition, the GI50 is 13.6 µM (inactive) in [7]; 16.6 µM (inactive) in assay [8]; 15.1 µM (inactive) in assay [9]; 16.2 µM (inactive) in [10]; 20.3 µM (inactive) in assay [11]; 15.9 µM (inactive) in assay [12]. Also, the GI50 in assay [13] was 14.9 µM (inactive); in assay [14], 14.5 µM (inactive); in assay [15], 18.5 µM (inactive); in assay [16], 16.9 µM (inactive); in [17], 16.1 µM (inactive); in assay [18], 15.2 µM (inactive). Also, the GI50 in [19] is 17.7 µM (inactive); in assay [20], 8.24 µM (inactive).
For the compound `N#Cc1c(-c2ccc(Cl)cc2)c(-c2ccc(Cl)cc2)nn(CCOC(=O)CCC(=O)O)c1=O`, the GI50 in assay [1] is 0.245 µM (active); in assay [2], 0.778 µM (active); in assay [3] it was 0.618 µM (active); in assay [4], 0.51 µM (active); in assay [5], 0.421 µM (active); in assay [6] it was 0.361 µM (active). In addition, the GI50 in [7] is 2.16 µM (inactive); in assay [8] it was 0.615 µM (active); in assay [9], 9.64 µM (inactive); in assay [10] it was 0.925 µM (active); in assay [11], 5.47 µM (inactive); in assay [12], 0.26 µM (active). Besides, the GI50 was 2.65 µM (inactive) in [13]; 0.344 µM (active) in assay [14]; 1.02 µM (active) in assay [15]; 0.582 µM (active) in assay [16]; < 0.01 µM (active) in assay [17]; 0.505 µM (active) in [18]. The GI50 is 1.27 µM (inactive) in [19] and 0.76 µM (active) in assay [20].
